Measurements from US5998594A, “Self-assembling, chromogenic receptors for the recognition of medically important substrates and their method of use” (University of Pittsburgh of the Commonwealth System of …, priority 1994, dated 1999).

Experiments:
[1] = UV-vis titration (ΔA550) with glutaric acid in CHCl3; format: binding
Protocol: FIG. 3 discloses the change in the visible absorption spectrum of Cu(1)2^+ BF4^- upon addition of glutaric acid in CHCl3 [Cu(1)2^+ BF4^- ]=0.106 mM, [glutaric acid]=0-0.5 mM.
FIG. 4 discloses the change in the visible absorption spectrum of [Cu(L)2^+ BF4^- ] upon addition of glutaric acid in CHCl3. [Cu(L)2^+ BF4^- ]=0-0.125 mM [glutaric acid]=0-0.40 mM.
(§1) Complexation of Receptor 1 with Dicarboxylic Acids. Receptor 1 is a bis(acylaminopyridine) receptor and as such was expected to form strong bidentate interactions with dicarboxylic acids in chloroform. This was indeed the case, as 1 was found by NMR to bind glutaric acid with an association constant of 3.6×10^4 M^-1. Large changes in proton chemical shifts of 1 indicate that the dicarboxylic acid is hydrogen bonded simultaneously to the two acylaminopyridines moieties. […] The contribution of the phenanthroline to binding is uncertain, but it appears to play only a minor role; no protons on the phenanthroline ring shifted more than 0.014 ppm during the course of the titration. […] The stoichiometry of the complexes was 2:1 as determined by the concentration of dicarboxylic acid at which saturation of the receptor was found and independently determined by a Job's plot. A Job's plot is used to measure stoichiometry based on continuous variations of constant concentrations. Binding was most conveniently followed by UV-vis spectroscopy (ΔA550) and was checked against NMR results for pimelic acid and glutaric acid. The binding data was analyzed by assuming that two independent and equal bidentate binding sites are interacting with the substrate. In this way a single association constant is obtained that represents the strength of binding of one of the receptor binding sites with one substrate. […] An exception was N-Cbz-glutamic acid, which is understandable because there are several diastereotopic complexes present (vide infra), each with a different Ka.
(§2) From comparison of FIG. 3 with FIG. 4 which is a change in the visible absorption spectrum of Cu(L)2^+ BF4^- upon addition of glutaric acid, it is clear that the bis-dicarboxylic acid receptor, Cu(1)2^+ BF4^-, is more chromogenic than a mono-dicarboxylic acid receptor, Cu(L)2^+ BF4^-. [drawing 1] The relative change in A550 is 3-4 times greater for Cu(1)2^+ BF4^- than for Cu(L)2^+ BF4^-. A summary of the spectral changes that occur upon complex formation are present in Table 2 below. […]
The origin of the chromogenic effect is definitely a direct result of the bidentate binding of dicarboxylic acids to the receptors. Addition of large excesses of monocarboxylic acids (acetic or trifluoroacetic) to a CHCl3 solution of either Cu(I)-based receptor leads to only minor changes in the absorbance spectrum. […]

[2] = UV-vis titration (ΔA550) with pimelic acid in CHCl3; format: binding
Source text: as §1
(§3) Also reported in Table 2 are the λmax and the relative change in the absorptivity at 550 nm for each substrate/receptor combination. The changes in the absorption spectra are definitely substrate dependent. For example, complexation of pimelic acid results in a less pronounced increase in the shoulder near the red edge and a smaller blue shift in λmax (for Cu(1)2^+ BF4^-,λmax =445 nm) than complexation of the 5-carbon acids, glutaric and N-Cbz-glutamic. […]

[3] = UV-vis titration (ΔA550) with 1,3-phenylenediacetic acid in CHCl3; format: binding
Source text: as §1, §3

[4] = UV-vis titration (ΔA550) with N-Cbz-glutamic acid in CHCl3; format: binding
Source text: Complexation of Receptor 1 with Dicarboxylic Acids. Receptor 1 is a bis(acylaminopyridine) receptor and as such was expected to form strong bidentate interactions with dicarboxylic acids in chloroform. This was indeed the case, as 1 was found by NMR to bind glutaric acid with an association constant of 3.6×10^4 M^-1. Large changes in proton chemical shifts of 1 indicate that the dicarboxylic acid is hydrogen bonded simultaneously to the two acylaminopyridines moieties. […] The contribution of the phenanthroline to binding is uncertain, but it appears to play only a minor role; no protons on the phenanthroline ring shifted more than 0.014 ppm during the course of the titration. […] The stoichiometry of the complexes was 2:1 as determined by the concentration of dicarboxylic acid at which saturation of the receptor was found and independently determined by a Job's plot. A Job's plot is used to measure stoichiometry based on continuous variations of constant concentrations. […] The binding data was analyzed by assuming that two independent and equal bidentate binding sites are interacting with the substrate. […]
In the binding mode proposed in FIG. 5, the structure of the 2:1 complex of glutaric acid with Cu(1)2^+ BF4^- is chiral, similar to a double helix. […] This complicates the analysis of binding because six possibly different binding constants need to be evaluated. […]

[5] = NMR titration with glutaric acid; format: binding
Source text: (§4) Complexation of Receptor 1 with Dicarboxylic Acids. Receptor 1 is a bis(acylaminopyridine) receptor and as such was expected to form strong bidentate interactions with dicarboxylic acids in chloroform. This was indeed the case, as 1 was found by NMR to bind glutaric acid with an association constant of 3.6×10^4 M^-1. Large changes in proton chemical shifts of 1 indicate that the dicarboxylic acid is hydrogen bonded simultaneously to the two acylaminopyridines moieties. […] The contribution of the phenanthroline to binding is uncertain, but it appears to play only a minor role; no protons on the phenanthroline ring shifted more than 0.014 ppm during the course of the titration. […] The stoichiometry of the complexes was 2:1 as determined by the concentration of dicarboxylic acid at which saturation of the receptor was found and independently determined by a Job's plot. A Job's plot is used to measure stoichiometry based on continuous variations of constant concentrations. Binding was most conveniently followed by UV-vis spectroscopy (ΔA550) and was checked against NMR results for pimelic acid and glutaric acid. The binding data was analyzed by assuming that two independent and equal bidentate binding sites are interacting with the substrate. In this way a single association constant is obtained that represents the strength of binding of one of the receptor binding sites with one substrate. […]

[6] = NMR titration with pimelic acid; format: binding
Source text: as §4

[7] = complexation with dicarboxylic acids in CHCl3 (UV-vis, NMR, Job's plot); format: binding
Source text: as §1, §2

[8] = air stability; format: physicochemical; conditions: Cu(I) complex
[9] = CHCl3, UV-vis ΔA550, per binding site

| Binding Constant (Ka) UV-vis ([1]; glutaric acid, CHCl3, UV-vis ΔA550, per binding site) [M⁻¹] | Binding Constant (Ka) UV-vis [2, 9] [M⁻¹] | Binding Constant (Ka) UV-vis [3, 9] [M⁻¹] | Binding Constant (Ka) UV-vis ([4]; CHCl3, UV-vis ΔA550, several diastereomeric complexes, all Ka assumed equal) [M⁻¹] | Binding Constant (Ka) NMR [5] [M⁻¹] | Binding Constant (Ka) NMR [6] [M⁻¹] | positive cooperativity in binding of second equivalent of dicarboxylic acid [7] | air stability [8] | association constant ([5]; uncoordinated receptor, chloroform) [M⁻¹] | receptor strength for dicarboxylic acids ([7]; uncoordinated ligand) | SMILES | relative change in A550, compared with Cu(L)2^+ BF4^- ([1]; glutaric acid, FIG. 3 vs FIG. 4) | % Increase ( = 550 nm) ([1]; glutaric acid, absorptivity at 550 nm) [%] | color change upon complexation ([1]; two equivalents of glutaric acid) | spectral change relative to the other dicarboxylic acids [2] | % Increase ( = 550 nm) ([2]; absorptivity at 550 nm) [%] | spectral change relative to the other dicarboxylic acids [3] | % Increase ( = 550 nm) ([3]; absorptivity at 550 nm) [%] | % Increase ( = 550 nm) ([4]; absorptivity at 550 nm) [%] | color change on binding ([7]; each dicarboxylic acid of Table 1) |
| --- | --- | --- | --- | --- | --- | --- | --- | --- | --- | --- | --- | --- | --- | --- | --- | --- | --- | --- | --- |
| 78000 | 17000 | 35000 | 40000 | 71000 | 40000 | not observed | air stable | – | – | Cc1cccc(NC(=O)c2ccc(-c3ccc4ccc5ccc(-c6ccc(C(=O)Nc7cccc(C)n7)cc6)nc5c4n3)cc2)n1.Cc1cccc(NC(=O)c2ccc(-c3ccc4ccc5ccc(-c6ccc(C(=O)Nc7cccc(C)n7)cc6)nc5c4n3)cc2)n1.F[B-](F)(F)F.[Cu+] [Cu(1)2^+ BF4^-] | 3-4 times | 101 | obvious color change from pale orange to bright red | smallest changes in the spectrum | 62 | largest change | 111 | 105 | distinct color change from pale orange to bright red |
| – | – | – | – | – | – | – | – | 36000 | good receptor for dicarboxylic acids | Cc1cccc(NC(=O)c2ccc(-c3ccc4ccc5ccc(-c6ccc(C(=O)Nc7cccc(C)n7)cc6)nc5c4n3)cc2)n1 [Receptor 1] | – | – | – | – | – | – | – | – | – |
